Assay [1] has as its target T1, human GHS receptor (Homo sapiens, UniProt Q92847). As to the kind of experiment: h bind IC50 (binding assay, Table 1). Particulars: human receptor; Table 1.
Assay [2] has as its target T1, human GHS receptor. The assay can be described thus: Ghrelin IP1 agonist assay (IP1 HTRF). It is filed as cell-based. The arrangement: expressed in transfected cells; host or cells: HEK293s. Particulars: for Emax: 2 h, agonist effect as % maximal effect of GHRP-6 (5 μM), read-out: h IP1 ag %; for EC50: HEK293s cells stably expressing human GHS receptor, 2 hours at 37° C., read-out: h IP1 ag EC50. Summed up: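 Cells: HEK293s stably expressing human GHS receptor, in stimulation buffer containing 0.02% fatty acid free BSA.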

T1 sequence (Q92847 whole entry): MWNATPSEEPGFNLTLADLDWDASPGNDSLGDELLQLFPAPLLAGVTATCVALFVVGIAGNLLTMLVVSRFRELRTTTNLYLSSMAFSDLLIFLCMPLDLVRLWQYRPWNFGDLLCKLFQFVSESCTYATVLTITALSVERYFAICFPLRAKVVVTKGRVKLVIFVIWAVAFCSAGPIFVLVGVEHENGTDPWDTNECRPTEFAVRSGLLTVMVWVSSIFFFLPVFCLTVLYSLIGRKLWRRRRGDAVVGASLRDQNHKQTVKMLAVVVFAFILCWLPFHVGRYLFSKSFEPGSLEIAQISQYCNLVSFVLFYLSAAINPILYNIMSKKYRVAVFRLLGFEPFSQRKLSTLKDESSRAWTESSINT

One may read the IC50 as the concentration at which inhibition is half-maximal. Lower therefore signals greater potency in that assay. As usually defined, the EC50 is the concentration giving half of the maximal effect. As to `O=C(NC(=O)c1ccccc1Cl)Nc1nc2ccc(S(=O)(=O)CCN3CC[C@@H](F)C3)cc2s1` [Example 32, 2-Chloro-N-[[6-[2-[(3R)-3-fluoropyrrolidin-1-yl]ethylsulfonyl]benzothiazol-2-yl]carbamoyl]benzamide], the IC50 at human GHS receptor [1] is 0.4 µM. At human GHS receptor [2], the Emax was 28% and the EC50 stood at 0.309 µM.
For `CN(C)c1cccnc1-c1ccc(Cl)c(C(=O)NC(=O)Nc2nc3ccc(S(C)(=O)=O)cc3s2)c1` [Example 247] the same measures were 0.452 µM, 0% and at least 20 µM.
For `CN(C)Cc1ccc(Cl)c(C(=O)NC(=O)Nc2nc3ccc(S(C)(=O)=O)cc3s2)c1` [Example 266, 2-chloro-5-((dimethylamino)methyl)-N-(6-(methylsulfonyl)benzo[d]thiazol-2-ylcarbamoyl) benzamide] the same measures were 4.94 µM, 6% and at least 20 µM.
For `O=C(NC(=O)c1ccccc1Cl)Nc1nc2ccc(S(=O)(=O)CCN3CCCCC3)cc2s1` [Example 33, 2-Chloro-N-[[6-[2-(1-piperidyl)ethylsulfonyl]benzothiazol-2-yl]carbamoyl]benzamide] the same measures were 0.0885 µM, 41.5% and 0.0249 µM.
`CC(C)(C)OC(=O)N1CC(Oc2ccc(Cl)c(C(=O)NC(=O)Nc3nc4ccc(S(C)(=O)=O)cc4s3)c2)C1` [Example 252, tert-buty 3-(4-chloro-3-(6-(methylsulfonyl)benzo[d]thiazol-2-ylcarbamoyl-carbamoyl)phenoxy)azetidine-1-carboxylate]: the IC50 on human GHS receptor [1] is 0.0187 µM. Moreover, at human GHS receptor [2], the Emax worked out at 1% and the EC50 came to 0.0277 µM.
Consider `CC(C)NCCS(=O)(=O)c1ccc2nc(NC(=O)NC(=O)c3ccccc3Cl)sc2c1` [Example 10, 2-Chloro-N-[[6-[2-(propan-2-ylamino)ethylsulfonyl]benzothiazol-2-yl]carbamoyl]benzamide], for which the IC50 on human GHS receptor [1] is 0.0273 µM. In addition, at human GHS receptor [2], the Emax was 44.1% and the EC50 was found to be 0.0189 µM.
For `CCN1CCN(CCCS(=O)(=O)c2ccc3nc(NC(=O)NC(=O)c4ccccc4Cl)sc3c2)CC1` [Example 197, 2-Chloro-N-[[6-[3-(4-ethylpiperazin-1-yl)propylsulfonyl]benzothiazol-2-yl]carbamoyl]benzamide] the same measures were 0.0004 µM, 55.8% and 0.00202 µM.
On human GHS receptor [1], `COc1cc(Cl)c(C(=O)NC(=O)Nc2nc3ccc(S(=O)(=O)C4CCN(C)CC4)cc3s2)cc1-n1cccn1` [Example 264, 2-chloro-4-methoxy-N-(6-(1-methylpiperidin-4-ylsulfonyl)benzo [d]thiazol-2-ylcarbamoyl) 5-(1H-pyrazol-1-yl)benzamide] displayed an IC50 of 0.00443 µM. Moreover, on human GHS receptor [2], the Emax came to 0% and the EC50 was at least 20 µM.
For `CN(C)C1CCN(CCCS(=O)(=O)c2ccc3nc(NC(=O)NC(=O)c4ccccc4Cl)sc3c2)CC1` [Example 201, 2-Chloro-N-[[6-[3-(4-dimethylamino-1-piperidyl)propylsulfonyl]benzothiazol-2-yl]carbamoyl]benzamide] the same measures were 0.0009 µM, 29.7% and 0.00454 µM.
For `CCN(CC)CCCS(=O)(=O)c1ccc2nc(NC(=O)NC(=O)c3ccccc3Cl)sc2c1` [Example 153, 2-Chloro-N-[[6-(3-diethylaminopropylsulfonyl)benzothiazol-2-yl]carbamoyl]benzamide] the same measures were 0.0125 µM, 47% and 0.0109 µM.
For `O=C(NC(=O)c1ccccc1Cl)Nc1nc2ccc(S(=O)(=O)CCCN3CCS(=O)(=O)CC3)cc2s1` [Example 150, 2-Chloro-N-[[6-[3-(1,1-dioxo-1,4-thiazinan-4-yl)propylsulfonyl]benzothiazol-2-yl]carbamoyl]benzamide] the same measures were 0.0527 µM, 33.4% and 0.0309 µM.
On to `Cc1ccn(-c2ccc(Cl)c(C(=O)NC(=O)Nc3nc4ccc(S(=O)(=O)CCCN5CCN(C)CC5)cc4s3)c2)n1` [Example 91, 2-Chloro-5-(3-methyl-1H-pyrazol-1-yl)-N-(6-(3-(4-methylpiperazin-1-yl)propylsulfonyl)benzothiazol-2-ylcarbamoyl)benzamide], for which, on human GHS receptor [1], the IC50 was 0.0005 µM. At human GHS receptor [2], the Emax turned out to be 0.5% and the EC50 was 4.82 µM.
`COCCNC1CC(S(=O)(=O)c2ccc3nc(NC(=O)NC(=O)c4ccccc4Cl)sc3c2)C1` (stereo not drawn) [Example 222, 2-Chloro-N-[[6-[3-(2-methoxyethylamino)cyclobutyl]sulfonylbenzothiazol-2-yl]carbamoyl]benzamide]: the IC50 on human GHS receptor [1] is 0.0186 µM. Besides, on human GHS receptor [2], the Emax turned out to be 58.2% and the EC50 worked out at 0.043 µM.
For `CS(=O)(=O)c1ccc2nc(NC(=O)NC(=O)c3cc(OC4CNC4)ccc3Cl)sc2c1` [Example 253, 5-(azetidin-3-yloxy)-2-chloro-N-(6-(methylsulfonyl)benzo[d]thiazol-2-ylcarbamoyl) benzamide] the same measures were 7.6 µM, 5.84% and 4.97 µM.
For `CS(=O)(=O)c1ccc2nc(NC(=O)NC(=O)c3ccccc3-c3ccccc3)sc2c1` [Example 105, N-[(6-Methylsulfonylbenzothiazol-2-yl)carbamoyl]-2-phenyl-benzamide] the same measures were 0.215 µM, 39.4% and 0.0986 µM.
For `O=C(NC(=O)c1cc(-n2cccc2)ccc1Cl)Nc1nc2ccc(S(=O)(=O)[C@@H]3CCNC3)cc2s1` [Example 78, 2-Chloro-N-[[6-[(3R)-pyrrolidin-3-yl]sulfonylbenzothiazol-2-yl]carbamoyl]-5-pyrrol-1-yl-benzamide] the same measures were 0.0008 µM, 0.81% and 4.22 µM.
Consider `CC1CCCCN1CCS(=O)(=O)c1ccc2nc(NC(=O)NC(=O)c3ccccc3Cl)sc2c1` (stereo not drawn) [Example 27, 2-Chloro-N-[[6-[2-(2-methyl-1-piperidyl)ethylsulfonyl]benzothiazol-2-yl]carbamoyl]benzamide], for which the IC50 at human GHS receptor [1] was 0.115 µM. At human GHS receptor [2], the Emax was 46.7% and the EC50 stood at 0.0231 µM.
For `O=C(NC(=O)c1ccccc1Cl)Nc1nc2ccc(S(=O)(=O)CCCN3CCOCC3)cc2s1` [Example 146, 2-Chloro-N-[[6-(3-morpholin-4-ylpropylsulfonyl)benzothiazol-2-yl]carbamoyl]benzamide] the same measures were 0.269 µM, 40.7% and 0.03 µM.
For `Cc1ccc(Cl)c(C(=O)NC(=O)Nc2nc3ccc(S(C)(=O)=O)cc3s2)c1F` [Example 195, 6-Chloro-2-fluoro-3-methyl-N-[(6-methylsulfonylbenzothiazol-2-yl)carbamoyl]benzamide] the same measures were 0.114 µM, 22.8% and 0.0329 µM.
For `CCN(CC)CCCS(=O)(=O)c1ccc2nc(NC(=O)NC(=O)c3cc(-n4cccn4)ccc3Cl)sc2c1` [Example 98, 2-Chloro-N-(6-(3-(diethylamino)propylsulfonyl)benzothiazol-2-ylcarbamoyl)-5-(1H-pyrazol-1-yl)benzamide] the same measures were 0.0087 µM, 9.19% and 0.0015 µM.
On human GHS receptor [1], `CC(C)(C)OC(=O)N1CCC(CS(=O)(=O)c2ccc3nc(NC(=O)NC(=O)c4ccccc4Cl)sc3c2)CC1` [Example 217, tert-Butyl 4-[[2-[(2-chlorobenzoyl)carbamoylamino]benzothiazol-6-yl]sulfonylmethyl]piperidine-1-carboxylate] returned a concentration for half-maximal inhibition (IC50) of 0.0704 µM. Further, on human GHS receptor [2], the Emax was found to be 36.9% and the EC50 was 0.118 µM.
For `NC1CC(S(=O)(=O)c2ccc3nc(NC(=O)NC(=O)c4ccccc4Cl)sc3c2)C1` (stereo not drawn) [Example 214, N-[[6-(3-Aminocyclobutyl)sulfonylbenzothiazol-2-yl]carbamoyl]-2-chloro-benzamide] the same measures were 0.0326 µM, 52.1% and 0.0124 µM.
`CCN(CC)CCCS(=O)(=O)c1ccc2nc(NC(=O)NC(=O)c3cc(-n4cccc4)ccc3Cl)sc2c1` [Example 71, 2-Chloro-N-[[6-(3-diethylaminopropylsulfonyl)benzothiazol-2-yl]carbamoyl]-5-pyrrol-1-yl-benzamide]: the IC50 on human GHS receptor [1] was determined as 0.0004 µM. Also, on human GHS receptor [2], the Emax amounted to 0.0469% and the EC50 was at least 25 µM.
For the compound `CCN(CC)CCCS(=O)(=O)c1ccc2nc(NC(=O)NC(=O)c3cc(N4CCOCC4)ccc3Cl)sc2c1` [Example 97, 2-Chloro-N-(6-(3-(diethylamino)propylsulfonyl)benzothiazol-2-ylcarbamoyl)-5-morpholinobenzamide], the IC50 on human GHS receptor [1] stood at 0.0042 µM. For the same compound, on human GHS receptor [2], the Emax was found to be 8.13% and the EC50 was 0.00428 µM.
For `CCOc1cc(Cl)c(C(=O)NC(=O)Nc2nc3ccc(S(=O)(=O)C4CCN(C)CC4)cc3s2)cc1-n1cccn1` [Example 261, 2-chloro-4-ethoxy-N-(6-(1-methylpiperidin-4-ylsulfonyl)benzo [d]thiazol-2-ylcarbamoyl)-5-(1H-pyrazol-1-yl)benzamide] the same measures were 0.00093 µM, 0% and at least 20 µM.
At human GHS receptor [1], `O=C(NC(=O)c1ccccc1Cl)Nc1nc2ccc(S(=O)(=O)CCN3CCCOCC3)cc2s1` [Example 30, 2-Chloro-N-[[6-[2-(1,4-oxazepan-4-yl)ethylsulfonyl]benzothiazol-2-yl]carbamoyl]benzamide] had an IC50 of 0.251 µM. On human GHS receptor [2], the Emax came to 23.8% and the EC50 amounted to 0.0392 µM.
